According to patent US8383597B2, “G proteins in tumor growth and angiogenesis” (Cornell Research Foundation, Inc., priority 2006, dated 2013):
“Also recorded” adds a separate entry of the source. d = 2'-deoxy (DNA); r = 2'-OH (RNA)

Key:
MEF cells [1] = test: Wound healing assay, siRNA-treated MEF cells; format: cell-based, mouse; conditions: PDGF stimulation (FIG. 3E)
Description: Wound Healing Assay: Wild type and Gα12^−/−Gα13^−/− MEF cells isolated from E8.0 Gα12^−/−Gα13^−/− embryos (Gu et al., Proc Natl Acad Sci USA 99: 9352-9357 (2002)) in Dulbecco's Modified Eagle Medium (DMEM) (Invitrogen) containing 10% FBS were seeded into wells of 24-multiwell plates (Becton-Dickinson) (Shan et al., Proc Natl Acad Sci USA 102: 3772-3776 (2005); Yang and Huang, J Biol Chem 280: 27130-27137 (2005)). After they grew to confluency, wounds were made with sterile pipet tips. Cells were washed with Phosphate Buffered Saline (PBS) and refreshed with medium containing 10% fetal bovine serum (FBS) or 20 ng/mL platelet-derived growth factor (PDGF-BB). After overnight incubation at 37° C., cells were fixed and photographed. MEF cells were transfected with Lipofectamine-2000 (transfection efficiency was 10 to 30%) (Invitrogen).
(§1) RNA Interference: RNA interference was performed with Qiagen's 2-For-Silencing siRNA Duplexes. Cells were plated in 6-well plates the day before transfection. 2.5 μg siRNA were diluted in 100 μL buffer EC-R (Qiagen). 7.5 μL RNAiFect transfection reagent (Qiagen) were added to form complexes. After incubation for 15 minutes at room temperature, the complexes were added to the cells. Two days later, the cells were again transfected with the same amount of siRNA. Cells were assayed after three more days' incubation. […]

MEF cells [2] = test: Chamber cell migration assay, siRNA-treated MEF cells; format: cell-based, mouse
Description: (§2) Chamber Cell Migration Assay: Cell migration was assayed in Boyden chambers [8.0 μm pore size polyethylene terephthalate membrane, FALCON cell culture insert (Becton-Dickinson)] (Shan et al., Proc Natl Acad Sci USA 102: 3772-3776 (2005); Yang and Huang, J Biol Chem 280: 27130-27137 (2005)). Cells were first trypsinized and counted. Then 5-10×10^4 cells in serum free medium (300 μL) were added to the upper chamber, and 500 μL of appropriate medium with 10% FBS or 20 ng/mL PDGF were added to the lower chamber. Transwells were incubated for 4-6 hours at 37° C. Cells on the inside of the transwell inserts were removed with a cotton swab, and cells on the underside of the insert were fixed and stained. Photographs of three random fields were taken, and the number of cells counted to determine the average number of cells that had transmigrated.
as §1

Gα12 [3] = test: Western blot of Gα12 protein level in SVEC4-10 endothelial cells after RNA interference; format: cell-based, mouse; conditions: SVEC4-10 cells, Western blot (FIG. 9A)
Description: (§3) RNA Interference: RNA interference was performed with Qiagen's 2-For-Silencing siRNA Duplexes. Cells were plated in 6-well plates the day before transfection. 2.5 μg siRNA were diluted in 100 μL buffer EC-R (Qiagen). 7.5 μL RNAiFect transfection reagent (Qiagen) were added to form complexes. After incubation for 15 minutes at room temperature, the complexes were added to the cells. Two days later, the cells were again transfected with the same amount of siRNA. Cells were assayed after three more days' incubation. The sequences for Gα13 siRNA oligonucleotides were r(GUA CGA CUU UGA AAU UAA A)dTdT (SEQ ID NO: 6) for the sense strand and r(UUU AAU UUC AAA GUC GUA C)dTdC (SEQ ID NO: 7) for the antisense strand. The sequences for the second pair of oligonucleotides used in the interference assay (data not shown) were r(GGG UGA GUC UGU AAA GUA U)dTdT (SEQ ID NO: 8) for the sense strand and r(AUA CUU UAC AGA CUC ACC C)dAdG (SEQ ID NO: 9) for the antisense strand. The control siRNA oligonucleotides were supplied by Qiagen.

tubulin [4] = test: Western blot of tubulin protein level in SVEC4-10 endothelial cells after RNA interference; format: cell-based, mouse; conditions: SVEC4-10 cells, Western blot (FIG. 9A)
Description: as §3

mouse Gα13 [5] = test: Western blot of Gα13 protein level in SVEC4-10 endothelial cells after RNA interference; format: cell-based; conditions: SVEC4-10 cells, Western blot (FIG. 9A)
Description: as §3

[6] = test system: mouse endothelial SVEC4-10 cells; test: Chamber assay of VEGF-induced migration of SVEC4-10 endothelial cells; format: cell-based; conditions: chamber assay (FIG. 9B)
Description: as §2, with “Then 5-10×10^4 cells in serum free medium (300 μL) were added to the upper chamber, and 500 μL of appropriate medium with 10% FBS or 20 ng/mL PDGF were added to the lower chamber.” left out
as §3, with “The sequences for the second pair of oligonucleotides used in the interference assay (data not shown) were r(GGG UGA GUC UGU AAA GUA U)dTdT (SEQ ID NO: 8) for the sense strand and r(AUA CUU UAC AGA CUC ACC C)dAdG (SEQ ID NO: 9) for the antisense strand. The control siRNA oligonucleotides were supplied by Qiagen.” left out

mouse Gα13 [7] = test: Western blot of Gα13 protein level in MEF cells after RNA interference; format: cell-based; conditions: wild-type MEF cells, siRNA transfection, Western blot (FIG. 3C)
Description: as §3

tubulin [8] = test: Western blot of tubulin protein level in MEF cells after RNA interference; format: cell-based, mouse; conditions: siRNA transfected MEF cells, Western blot (FIG. 3C)
Description: as §3

Gα12 [9] = test: Western blot of Gα12 protein level in MEF cells after RNA interference; format: cell-based, mouse; conditions: siRNA transfected MEF cells, Western blot (FIG. 3C)
Description: as §3

r(GUA CGA CUU UGA AAU UAA A)dTdT (sense GUACGACUUUGAAAUUAAATT; antisense UUUAAUUUCAAAGUCGUACTC; siRNA; sugars from the 5' end r19 d2, backbone not given here) [Gα13 siRNA, siRNA duplex against mouse Gα13]
cell migratory response to PDGF stimulation, wound-healing assay (MEF cells [1]): defective cell migratory response; also recorded: reduced
cell migratory response to PDGF stimulation, chamber assay (MEF cells [2]; PDGF stimulation (FIG. 3D)): defective cell migratory response
migration of cells without PDGF, compared with control RNAi (MEF cells [2]; without PDGF (or other stimuli), data not shown): not significantly different
protein level of Gα12 (Gα12 [3]): no effect
protein level of tubulin (tubulin [4]): no effect
endogenous mouse Gα13 protein level (mouse Gα13 [5]): reduced
VEGF-induced endothelial cell migration [6]: reduced
level of endogenous mouse Gα13 protein (mouse Gα13 [7]): significantly reduced
protein level of tubulin (tubulin [8]): not changed
protein level of Gα12 (Gα12 [9]): not changed
